Laboratory results published in patent US11850247B2, “Antiviral compounds” (REGENTS OF THE UNIVERSITY OF MINNESOTA, priority 2020, dated 2023).

What was measured:
[1] = Cytotoxicity in TZM-GFP cells (XTT); format: cell-based; conditions: human, 72 hours exposure, XTT
Description: (§1) The cytotoxicity of each compound was also determined in TZM-GFP cells. Cells were plated at a density of 1×10^4 cells per well in a 96-well plate and were continuously exposed to increasing concentrations of a compound for 72 hours. The number of viable cells in each well was determined using a Cell Proliferation Kit II (XTT), and 50% cytotoxicity concentration (CC50) values were determined. All the cell-based assays were conducted in duplicate and in at least two independent experiments. For the EC50 and CC50 dose responses, values were plotted in GraphPad Prism 5 and analyzed with the log (inhibitor) vs. normalized response-variable slope equation. Final values were calculated in each independent assay and the average values were determined. Statistical analysis (calculation of standard deviation) was performed by using Microsoft Excel.

HIV-1 = assay: Anti-HIV-1 activity in TZM-GFP cells (viral LTR-activated GFP expression); format: cell-based; conditions: for EC50: Human immunodeficiency virus 1, HIV-1 strain MOI=1, GFP positive cells counted after 48 hours; for inhibition at 2 µM: Human immunodeficiency virus 1, 2 μM compound; for inhibition at 2 µM / inhibition at 20 µM: HIV-1 MOI=1; for inhibition at 20 µM: Human immunodeficiency virus 1, 20 μM compound
Description: The potency of HIV-1 inhibition by a compound was based on its inhibitory effect on viral LTR-activated GFP expression compared with that of compound-free (DMSO) controls. Briefly, TZM-GFP cells were plated at density of 1×10^4 cells per well in a 96-well plate. 24 hours later, media was replaced with increasing concentrations of compound. 24 hours post treatment, cells were exposed to an HIV-1 strain (MOI=1).
as §1

[2] = target: covalently-crosslinked hexameric CA A14C/E45C/W184A/M185A (CA121) (Human immunodeficiency virus type 1 group M subtype B, UniProt P12493, A146C/E177C/M317A/W316A); assay: Thermal shift assay (TSA), CA hexamer stability; format: binding, HIV-1; conditions: compound 20 μM, ΔTm=Tm−T0 vs DMSO

SMILES | CC50 at 72 h [1] [µM] | EC50 (HIV-1) [µM] | TSA ΔTm (° C.) [2] [°C] | inhibition at 2 µM (HIV-1) [%] | inhibition at 20 µM (HIV-1) [%]
CN(C(=O)[C@H](Cc1ccccc1)NC(=O)Cc1cccc2ccccc12)c1ccc(Cl)cc1 [Example 18, (S)—N-(4-chlorophenyl)-N-methyl-2-(2-(naphthalen-1-yl)acetamido)-3-phenylpropanamide] | < 50 | 0.83 ± 0.03 | 7.2 | – | –
CN(C(=O)[C@H](Cc1ccccc1)NC(=O)Cc1cccc2ccccc12)c1cccc(Cl)c1 [Example 19, (S)—N-(3-chlorophenyl)-N-methyl-2-(2-(naphthalen-1-yl)acetamido)-3-phenylpropanamide] | < 50 | – | 4.4 | 53 | 96
CN(C(=O)[C@H](Cc1ccccc1)NC(=O)Cc1cccc2ccccc12)c1cccc(F)c1 [Example 20, (S)—N-(3-fluorophenyl)-N-methyl-2-(2-(naphthalen-1-yl)acetamido)-3-phenylpropanamide] | < 50 | – | 5.4 | 44 | 97
CCN(C(=O)[C@H](Cc1ccccc1)NC(=O)Cc1cccc2ccccc12)c1ccccc1 [Example 21, (S)—N-ethyl-2-(2-(naphthalen-1-yl)acetamido)-N,3-diphenylpropanamide] | < 50 | 1.8 ± 0.09 | 4.9 | – | –
CN(C(=O)[C@H](Cc1ccccc1)NC(=O)CN1C(=O)NC2(CCCCC2)C1=O)c1ccccc1 [Example 22, 2-(2-(2,4-dioxo-1,3-diazaspiro[4.5]decan-3-yl)acetamido)-N-methyl-N,3-diphenylpropanamide] | > 100 | 8.9 ± 1.5 | 1.3 | – | –
COc1ccc(N(C)C(=O)[C@H](Cc2ccccc2)NC(=O)CN2C(=O)NC3(CCCCC3)C2=O)cc1 [Example 23, 2-(2-(2,4-dioxo-1,3-diazaspiro[4.5]decan-3-yl)acetamido)-N-(4-methoxyphenyl)-N-methyl-3-phenylpropanamide] | > 100 | 5.1 ± 2 | 1.8 | – | –
Cc1ccc(N(C)C(=O)[C@H](Cc2ccccc2)NC(=O)CN2C(=O)NC3(CCCCC3)C2=O)cc1 [Example 24, 2-(2-(2,4-dioxo-1,3-diazaspiro[4.5]decan-3-yl)acetamido)-N-methyl-3-phenyl-N-(p-tolyl)propenamide] | > 100 | 1.9 ± 0.5 | 2.7 | – | –
CN(C(=O)[C@H](Cc1ccccc1)NC(=O)CN1C(=O)NC2(CCCCC2)C1=O)c1ccc(F)cc1 [Example 25, 2-(2-(2,4-dioxo-1,3-diazaspiro[4.5]decan-3-yl)acetamido)-N-(4-fluorophenyl)-N-methyl-3-phenylpropanamide] | > 50 | – | 3.1 | 9 | 99
CN(C(=O)[C@H](Cc1ccccc1)NC(=O)CN1C(=O)NC2(CCCCC2)C1=O)c1cccc(F)c1 [Example 26, 2-(2-(2,4-dioxo-1,3-diazaspiro[4.5]decan-3-yl)acetamido)-N-(3-fluorophenyl)-N-methyl-3-phenylpropanamide] | > 50 | – | 1.3 | 24 | 98
CN(C(=O)[C@H](Cc1ccccc1)NC(=O)CN1C(=O)NC2(CCCCC2)C1=O)c1ccc(Cl)cc1 [Example 27, N-(4-chlorophenyl)-2-(2-(2,4-dioxo-1,3-diazaspiro[4.5]decan-3-yl)acetamido)-N-methyl-3-phenylpropanamide] | > 100 | 2.5 ± 0.5 | 2.2 | – | –
CN(C(=O)[C@H](Cc1ccccc1)NC(=O)CN1C(=O)NC2(CCCCC2)C1=O)c1cccc(Cl)c1 [Example 28, N-(3-chlorophenyl)-2-(2-(2,4-dioxo-1,3-diazaspiro[4.5]decan-3-yl)acetamido)-N-methyl-3-phenylpropanamide] | < 50 | – | 3.3 | 9 | 98
CN(C(=O)[C@H](Cc1ccccc1)NC(=O)CN1C(=O)NC2(CCCCC2)C1=O)c1cccc(Br)c1 [Example 29, N-(3-bromophenyl)-2-(2-(2,4-dioxo-1,3-diazaspiro[4.5]decan-3-yl)acetamido)-N-methyl-3-phenylpropanamide] | > 50 | > 20 | 1.5 | – | –
CCN(C(=O)[C@H](Cc1ccccc1)NC(=O)CN1C(=O)NC2(CCCCC2)C1=O)c1ccccc1 [Example 30, 2-(2-(2,4-dioxo-1,3-diazaspiro[4.5]decan-3-yl)acetamido)-N-ethyl-N,3-diphenylpropanamide] | > 100 | 7.6 ± 0.9 | 2.0 | – | –
CN(C(=O)[C@H](Cc1ccccc1)NC(=O)Cn1c(=O)[nH]c2ccccc2c1=O)c1ccccc1 [Example 31, (S)-2-(2-(2,4-dioxo-1,4-dihydroquinazolin-3(2H)-yl)acetamido)-N-methyl-N,3-diphenylpropanamide] | > 100 | 6.9 ± 0.8 | 2.7 | – | –
CN(C(=O)[C@H](Cc1ccccc1)NC(=O)Cn1c(=O)[nH]c2ccccc2c1=O)c1ccc(F)cc1 [Example 32, (S)-2-(2-(2,4-dioxo-1,4-dihydroquinazolin-3(2H)-yl)acetamido)-N-(4-fluorophenyl)-N-methyl-3-phenylpropanamide] | > 100 | 8 ± 1.3 | 2.4 | – | –
CN(C(=O)[C@H](Cc1ccccc1)NC(=O)CNC(=O)c1ccccc1)c1ccccc1 [Example 34, (S)—N-(2-((1-(methyl(phenyl)amino)-1-oxo-3-phenylpropan-2-yl)amino)-2-oxoethyl)benzamide] | > 50 | – | 1.3 | 15 | 96
Cc1ccc(N(C)C(=O)[C@H](Cc2ccccc2)NC(=O)CNC(=O)c2ccccc2)cc1 [Example 35, (S)—N-(2-((1-(methyl(p-tolyl)amino)-1-oxo-3-phenylpropan-2-yl)amino)-2-oxoethyl)benzamide] | > 50 | 1.6 ± 0.02 | 5.0 | – | –
CN(C(=O)[C@H](Cc1ccccc1)NC(=O)CNC(=O)c1ccccc1)c1ccc(Cl)cc1 [Example 36, (S)—N-(2-((1-((4-chlorophenyl)(methyl)amino)-1-oxo-3-phenylpropan-2-yl)amino)-2-oxoethyl)benzamide] | > 50 | 0.88 ± 0.02 | 4.1 | – | –
CN(C(=O)[C@H](Cc1ccccc1)NC(=O)CNC(=O)c1ccccc1)c1cccc(Cl)c1 [Example 37, (S)—N-(2-((1-((3-chlorophenyl)(methyl)amino)-1-oxo-3-phenylpropan-2-yl)amino)-2-oxoethyl)benzamide] | > 50 | – | 2.0 | 40 | 95
CN(C(=O)[C@H](Cc1ccccc1)NC(=O)CNC(=O)c1ccccc1)c1ccc(F)cc1 [Example 38, (S)—N-(2-((1-((4-fluorophenyl)(methyl)amino)-1-oxo-3-phenylpropan-2-yl)amino)-2-oxoethyl)benzamide] | > 50 | – | 2.2 | 12 | 97
